According to US20210293785A1, “METHODS FOR PREDICTING STEROID RESPONSIVENESS” (FLORIDA STATE UNIVERSITY RESEARCH FOUNDATION, INC., priority 2020, published 2021):

System: keloid fibroblasts
Assay: Cell proliferation assay of patient-derived fibroblasts with or without steroid
Type: cell-based, human
Description: As depicted in the flow diagram of FIG. 3, in some embodiments, the method of the invention involves culturing small (˜2 mm) tissue pieces using standard cell culture media and conditions to allow the outgrowth of cells, which takes 1-2 weeks. Depending upon the desired cell type or cell types, non-invasive sampling methods can be utilized, such an oral rinse. The outgrown cells are collected by trypsinization and re-seeded in fresh wells. Upon attachment, the cells are treated in triplicate with or without 10 micromolar Triamcinolone Acetonide (TA), a potent synthetic steroid used widely in the clinic, or varying concentrations of any other test steroid. The viable cells are harvested 4-7 days post-treatment (when the untreated cells start approaching confluency) and counted to determine the effects of the steroid on cell proliferation. The inventors have tested the method of the invention using fibroblast cells derived from 3 normal human skin biopsies as well as 20 surgically excised keloids from patients and exposing them to TA, as well as hydrocortisone, another commonly used steroid in the clinic. The results were remarkably similar to those observed for the response of keloid patients to steroids in the clinic, with 52% of the samples being sensitive (responsive) to the TA treatment, while 39% were non-responsive and 9% were hyperproliferative in TA (which predicts a worsening of condition upon steroid therapy). In summary, our screening test described herein can be used to determine patients' responses to steroids in less than 4 weeks, following which responsive patients can undergo steroid therapy, while others can avoid the potentially harmful steroids altogether and seek other therapies. Culture of keloid derived primary fibroblast cells. Surgically excised keloid and normal skin explants were obtained from patients under Florida State University IRB (2016.19175 and 2017.22173). The explants were cut into small pieces, digested with trypsin, washed with and cultured in DMEM containing 10% fetal bovine serum and Antibiotic/Antimycotic solution maintained at 37° C. and 5% CO2. Outgrowth of only primary dermal fibroblasts occurred under our culture conditions and these were recovered by trypsinization for use in experiments at low passage. The keloid fibroblasts are morphologically identical to commercially obtained normal primary Human Dermal Fibroblasts (HDF) (Cell Applications, Cat.#106-05a) used in our controls. Cell proliferation assays. To determine relative cell survival following radiation or steroid treatments, 7,500 fibroblasts were seeded per well in triplicate in 12-well plates. Following attachment, the cells were treated with steroids or irradiated using a X-Rad 320 irradiator. Surviving fibroblasts were counted on a Coulter counter 7 days post-treatment.

[1] = fibroblasts from 3 normal human skin biopsies and 20 surgically excised keloids, 10 micromolar TA, cells counted 4-7 days post-treatment
[2] = keloid explants and fibroblasts, 10 μM TA for a week

CC1(C)O[C@@H]2C[C@H]3[C@@H]4CCC5=CC(=O)C=C[C@]5(C)[C@@]4(F)[C@@H](O)C[C@]3(C)[C@]2(C(=O)CO)O1 [TA, Triamcinolone Acetonide]
samples hyperproliferative in TA [1]: 9%
samples non-responsive to TA [1]: 39%
samples sensitive (responsive) to the TA treatment [1]: 52%
samples with hyperproliferation [2]: 10%
samples with modest reduction in proliferation (steroid sensitive) [2]: 50%
samples with no significant effects on proliferation (steroid insensitive) [2]: 40%
